{"source": "patent US20250295648A1", "about": "(priority 2024, published 2025)", "key": {"PD patients with LID [1]": {"system": "PD patients with LID", "experiment": "King's Parkinson's Disease Pain Scale (KPPS)", "format": "in vivo, human", "conditions": "for KPPS, mean change from baseline: per-protocol set, p < 0.01 vs baseline", "excerpt": "The KPPS is a rater-interview-based scale conducted with the patient and caregiver (if available). It is a 14-item scale covering 7 domains of pain: • z. Musculoskeletal pain • aa. Chronic pain • bb. Fluctuation-related pain • cc. Nocturnal pain • dd. Orofacial pain • ee. Edema/swelling; discoloration • ff. Radicular pain Each item is scored by severity (0-3; none to very severe) multiplied by frequency (0-4; never to all the time), for an item sub score of 0-12, resulting in a total score from 0 to 168. Ratings are based on the previous month, or in the case of this study, the intervening period since the previous clinic visit (about 3 weeks). Treatment effects would be analyzed as change from baseline for total score and for individual pain domains."}, "5-HT1A receptors": {"molecular_target": "T1, 5-HT1A receptors (Homo sapiens, UniProt P08908)", "T1 sequence (P08908 1-422)": "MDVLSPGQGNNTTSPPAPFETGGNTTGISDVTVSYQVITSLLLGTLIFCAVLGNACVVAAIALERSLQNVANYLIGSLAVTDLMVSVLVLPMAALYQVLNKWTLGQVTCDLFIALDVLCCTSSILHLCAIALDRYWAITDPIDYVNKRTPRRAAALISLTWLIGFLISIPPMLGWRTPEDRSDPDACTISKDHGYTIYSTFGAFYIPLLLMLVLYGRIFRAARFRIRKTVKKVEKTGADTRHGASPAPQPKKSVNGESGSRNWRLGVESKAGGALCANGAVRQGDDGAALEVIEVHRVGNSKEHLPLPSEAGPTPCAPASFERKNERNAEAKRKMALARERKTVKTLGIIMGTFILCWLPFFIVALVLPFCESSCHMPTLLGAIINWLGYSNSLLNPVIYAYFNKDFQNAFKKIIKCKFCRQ", "conditions": "cited from earlier work"}, "PD patients with LID [2]": {"system": "PD patients with LID", "experiment": "PD Home Dyskinesia eDiary (good ON time)", "format": "in vivo, human", "excerpt": "A PD Home Dyskinesia Diary (electronic) would be completed by the patients and/or caregiver with concordance in ON time with dyskinesia between study staff and patient. The diary is integrated in the Kinesia 360 wearable dyskinesia assessment system and is based on the PD Home Diary developed by Hauser (Hauser […]. Parkinson's Disease Home Diary: Further Validation and Implications for Clinical Trials. Mov. Discord. 19 (12), 2004). The diary would be used to score 5 different conditions in 30-minute time intervals during 2×24 hours prior to Visit 2, Visit 6 and Visit 7: • ASLEEP; • OFF; • ON (i.e., adequate control of PD symptoms) without dyskinesia; • ON with non-troublesome dyskinesia; • ON with troublesome dyskinesia."}, "6-OH-DA lesioned rats": {"system": "6-OH-DA lesioned rats", "conditions": "rat, in vivo; cited from earlier work"}, "PD patients with LID [3]": {"system": "PD patients with LID", "experiment": "Parkinson's Disease Questionnaire (PDQ39)", "format": "in vivo, human", "conditions": "for PDQ39, mean change from baseline: per-protocol set", "excerpt": "The PDQ39-item patient reported outcome of health status and quality of life and is the most frequently used disease-specific health status measure for PD. The questionnaire assesses how often people affected by PD experience difficulties across 8 dimensions of daily living. The standard PDQ39 assesses quality of life over the previous month. In this study the initial time period assessed at the Baseline Visit would be the previous month, with subsequent assessments for the intervening period since the last clinic visit (about 3 weeks). The 8 quality of life dimensions covered in the questionnaire are: • gg. Mobility (10 items #1-10) • hh. ADL (6 items #11-16) • ii. Emotional Well Being (6 items #17-22) • jj. Stigma (4 items #23-26) • kk. Social Support (3 items #27-29) • ll. Cognition (4 items #30-33) • mm. Communications (3 items #34-36) • nn. Bodily Discomfort (3 items #37-39) Individual items are rated by the patient on a scale of […]. Dimension scores are calculated on a scale of 0 to 100. The total score and individual dimension scores would be assessed for change from baseline."}, "[4]": {"conditions": "per-protocol set (n = 15), Baseline"}}}
{"smiles": "Cc1ccc(CNCC2(F)CCN(C(=O)c3ccc(F)c(Cl)c3)CC2)nc1", "note": "[NLX-112, (3-chloro-4-fluoro-phenyl)-[4-fluoro-4-{[(5-methyl-pyridin-2-ylmethyl)-amino]-methyl}piperidin-1-yl]methanone]", "values": [{"measurement": "KPPS total score (reported pain), change from baseline", "setting": "PD patients with LID [1]; Day 42, also seen with placebo", "value": "statistically significant improvement"}, {"measurement": "KPPS, mean", "setting": "PD patients with LID [1]; [4]", "value": 16.0}, {"measurement": "KPPS, mean change from baseline", "setting": "PD patients with LID [1]; Δ D 28 (end of up-titration)", "value": "−4.6"}, {"measurement": "KPPS, mean change from baseline", "setting": "PD patients with LID [1]; Δ D 42 (end of stable dosing)", "value": "−4.8"}, {"measurement": "agonist efficacy at 5-HT1A receptors", "setting": "5-HT1A receptors", "value": "full agonist properties"}, {"measurement": "selectivity for 5-HT1A receptors", "setting": "5-HT1A receptors", "value": "exceptional selectivity"}, {"measurement": "good ON time, mean absolute change from baseline", "setting": "PD patients with LID [2]; Day 28, n=13, eDiary", "value": "+5.7%"}, {"measurement": "good ON time, significance of change from baseline within or between groups", "setting": "PD patients with LID [2]; Day 28 or Day 42", "value": "no statistically significant changes"}, {"measurement": "good ON time, mean absolute change from baseline", "setting": "PD patients with LID [2]; Day 42, n=12, eDiary", "value": "+5.2%"}, {"measurement": "rotation behavior", "setting": "6-OH-DA lesioned rats", "value": "increases rotation behavior"}, {"measurement": "quality of life (PDQ39 score)", "setting": "PD patients with LID [3]; Days 28 or 42", "value": "no consistent statistically significant effect"}, {"measurement": "PDQ39, mean", "setting": "PD patients with LID [3]; [4]", "value": 18.7}, {"measurement": "PDQ39, mean change from baseline", "setting": "PD patients with LID [3]; Δ D 28 (end of up-titration)", "value": "−1.5"}, {"measurement": "PDQ39, mean change from baseline", "setting": "PD patients with LID [3]; Δ D 42 (end of stable dosing)", "value": "−0.6"}]}
